The values that follow come from US9387199B2, “Compositions and methods for treating clostridium infection and preventing recurrence of infection” (priority 2013, dated 2016).

The subject of data set [1] is C. difficile VPI 10463. The data set is described as follows: Cecal clostridial (tcdB qPCR) and toxin (TcdA/TcdB ELISA) burden in the murine CDI model. Format: in vivo, C57BL/6 mice. The protocol: Food and water were allowed ad libitum. […] Stool specimens were collected daily.
Genomic DNA was extracted from the stool or cecal samples using a modified protocol for the QIAamp DNA stool minikits (Qiagen). Stool lysis buffer (400 μl) was added to a frozen stool sample-diluent (from enzyme-linked immunosorbent assay [ELISA]) mixture. Samples were then vortexed for 15 s and incubated at 82.5° C. for 5 min. The samples were vortexed for another 15 s and then centrifuged at 14,000 rpm for 2 min. The supernatant was added to a clean 1.5-ml microcentrifuge tube. Thirty microliters of proteinase K was added to the wall of each tube, followed by 400 μl of lysis buffer. Samples were vortexed for 15 s and then incubated at 70° C. for 10 min. After incubation, 400 μl of 100% ethanol was added to each sample and then mixed by vortexing. A total of 650 μl of the sample was then added to a spin column provided in the kit and centrifuged at 14,000 rpm for 1 min. The remaining volume of each sample was then added to the spin column and centrifuged under the same conditions. The samples were washed first with 500 μl of AW1 buffer and centrifuged at 14,000 rpm for 1 min and then with 500 μl of AW2 buffer and centrifuged at 14,000 rpm for 3 min. The DNA was eluted by adding 200 μl of elution buffer to the spin column and then centrifuging at 14,000 rpm for 1 min.

Data set [2] concerns C. difficile VPI 10463. The data set is described as follows: Histopathology scoring of cecal and colonic tissues in the murine CDI model. Format: in vivo, C57BL/6 mice.
The conditions of data set [3]: uninfected mice, 5-day course of drug alone.
The subject of another data set is IgG. Also on record: species or system mice. The conditions noted are these: mouse, in vivo.
Another data set deals with C. difficile NAP1/BI/027. The following applies: infections due to NAP1/BI/027, treated subjects; cited from earlier work.
Data set [4] has as its system C. difficile VPI 10463. The data set is described as follows: Murine model of C. difficile infection and treatment (clinical score, survival, relapse), Example 1. The conditions noted are these: for deaths prevented during the acute infection period: untreated infected survival 38%.
In another data set the test system is C. difficile. The following applies: with drug use; cited from earlier work.
The mark [5] stands for this setting: second week postinoculation, infected control 2.7±0.9, uninfected 1.6±0.26.
Where [6] appears, read: 20 mg/kg oral gavage daily for 5 days.
[7] abbreviates: first week after infection, 20 mg/kg oral gavage daily for 5 days, infected controls 5.7±0.9.

For `CNC(CC(C)C)C(=O)NC1C(=O)NC(CC(N)=O)C(=O)NC2C(=O)NC3C(=O)NC(C(=O)NC(C(=O)O)c4cc(O)cc(O)c4-c4cc3ccc4O)C(O)c3ccc(c(Cl)c3)Oc3cc2cc(c3OC2OC(CO)C(O)C(O)C2OC2CC(C)(N)C(O)C(C)O2)Oc2ccc(cc2Cl)C1O` (stereo not drawn) [vancomycin], the “C. difficile DNA (tcdB) and toxin levels in cecal specimens” value in the data set on C. difficile VPI 10463 [1] (day 3 (peak of infection)) is recorded as “low”. In the data set with C. difficile VPI 10463 [1] (day 6 (1 day after antibiotic was discontinued), persisted on days 9 and 12), the “clostridial burden in cecal specimens” value is “increased clostridial burden”. For the same compound, the histopathology score in the data set with C. difficile VPI 10463 [2] (at the peak of infection (day 3), uninfected control 2.2±1) is on record as 4.5±1.6; with C. difficile VPI 10463 [2] (setting [5]), 9.3±0.9. In data set [3], the “weight loss or increase in disease score” value is on record as “did not show weight loss or an increase in disease score”. Moreover, the “IgG levels, low dose versus high dose” value in the data set with IgG is “higher IgG levels”. Besides, the rate of recurrence in the data set with C. difficile NAP1/BI/027 was 23.6%. Also, the “deaths prevented during the acute infection period” value in the data set with C. difficile VPI 10463 [4] (setting [6]) is 100%. Further, the “clinical score until recurrence of disease” value in the data set on C. difficile VPI 10463 [4] (20 mg/kg/day for 5 or 10 days, both treatment groups) is less than 1. In addition, the “infected mice that relapsed” value in the data set with C. difficile VPI 10463 [4] (20 mg/kg/day for 5 days) was 67%. The “mortality rate, 10-day versus 5-day course” value with C. difficile VPI 10463 [4] (20 mg/kg/day for 10 days) was “higher mortality rate”. Besides, the “time from end of treatment to relapse” value in the data set on C. difficile VPI 10463 [4] (20 mg/kg/day, 5-day treatment course) was determined as 4 days. In addition, the “time from discontinuation to relapse” value with C. difficile VPI 10463 [4] (20 mg/kg/day, 10-day treatment course) was found to be 3 days. In addition, in the data set with C. difficile VPI 10463 [4] (50 mg for 1 day only, versus 2, 3, 5 days), the “weight loss and clinical outcomes by duration of treatment” value was “least weight loss and best clinical outcomes”. The same compound registered an overall mortality rate in the data set on C. difficile VPI 10463 [4] (50 mg given for 5 days, infected controls 75%) of 100%. Further, in the data set on C. difficile VPI 10463 [4] (by day 9 and onwards, after 5-day treatment at 20 mg/kg), the deaths was found to be 62%. Moreover, the mean clinical score was determined as 1.7±0.3 in the data set on C. difficile VPI 10463 [4] (setting [7]) and 6.2±0.2 in the data set with C. difficile VPI 10463 [4] (second week postinfection, 20 mg/kg daily for 5 days, surviving untreated infected mice 2.6).
`Cc1ncc([N+](=O)[O-])n1CCO` [metronidazole]: the recurrence rate in the data set with C. difficile is listed as not above 50%. For the same compound, the “infected mice that relapsed” value with C. difficile VPI 10463 [4] (20 mg/kg/day for 5 days) is on record as “none”. Moreover, in the data set with C. difficile VPI 10463 [4] (20 mg/kg/day for 5 days, infected mice), the “weight loss or diarrhea while on antibiotics” value was “had diarrhea and weight loss during treatment”. For the same compound, the “mice that died of infection during treatment” value with C. difficile VPI 10463 [4] (20 mg/kg/day for 5 days, 6 mice per group) was “one mouse”.
`CC(=O)Oc1ccccc1C(=O)Nc1ncc([N+](=O)[O-])s1` [nitazoxanide]: the histopathology score amounted to 11.53±0.9 with C. difficile VPI 10463 [2] (first week postinoculation, 20 mg/kg daily, untreated infected 12.5±0.7, max score 15) and 4.2±0.6 in the data set on C. difficile VPI 10463 [2] (setting [5]). The “deaths prevented during the acute infection period” value with C. difficile VPI 10463 [4] (setting [6]) came to 60%. Besides, the mean clinical score in the data set with C. difficile VPI 10463 [4] (setting [7]) came out at 5±1. Besides, the “additional deaths in post-acute infection period” value in the data set on C. difficile VPI 10463 [4] (second week postinfection, 20 mg/kg daily for 5 days) was “no additional deaths were noted”.
